Measurements reported in patent publication US20240376091A1, “THIADIAZOLEAMIDE DERIVATIVES AND THEIR APPLICATIONS” (ZHEJIANG UNIVERSITY, priority 2021, published 2024).

Target: T1, AR (Homo sapiens, UniProt P10275, T878A)
T1 construct: into the androgen-dependent PCa cells (LNCaP); endogenous in cells; host or cells: LNCaP-ARR2PB-eGFP
T1 sequence (P10275 1-920 T878A): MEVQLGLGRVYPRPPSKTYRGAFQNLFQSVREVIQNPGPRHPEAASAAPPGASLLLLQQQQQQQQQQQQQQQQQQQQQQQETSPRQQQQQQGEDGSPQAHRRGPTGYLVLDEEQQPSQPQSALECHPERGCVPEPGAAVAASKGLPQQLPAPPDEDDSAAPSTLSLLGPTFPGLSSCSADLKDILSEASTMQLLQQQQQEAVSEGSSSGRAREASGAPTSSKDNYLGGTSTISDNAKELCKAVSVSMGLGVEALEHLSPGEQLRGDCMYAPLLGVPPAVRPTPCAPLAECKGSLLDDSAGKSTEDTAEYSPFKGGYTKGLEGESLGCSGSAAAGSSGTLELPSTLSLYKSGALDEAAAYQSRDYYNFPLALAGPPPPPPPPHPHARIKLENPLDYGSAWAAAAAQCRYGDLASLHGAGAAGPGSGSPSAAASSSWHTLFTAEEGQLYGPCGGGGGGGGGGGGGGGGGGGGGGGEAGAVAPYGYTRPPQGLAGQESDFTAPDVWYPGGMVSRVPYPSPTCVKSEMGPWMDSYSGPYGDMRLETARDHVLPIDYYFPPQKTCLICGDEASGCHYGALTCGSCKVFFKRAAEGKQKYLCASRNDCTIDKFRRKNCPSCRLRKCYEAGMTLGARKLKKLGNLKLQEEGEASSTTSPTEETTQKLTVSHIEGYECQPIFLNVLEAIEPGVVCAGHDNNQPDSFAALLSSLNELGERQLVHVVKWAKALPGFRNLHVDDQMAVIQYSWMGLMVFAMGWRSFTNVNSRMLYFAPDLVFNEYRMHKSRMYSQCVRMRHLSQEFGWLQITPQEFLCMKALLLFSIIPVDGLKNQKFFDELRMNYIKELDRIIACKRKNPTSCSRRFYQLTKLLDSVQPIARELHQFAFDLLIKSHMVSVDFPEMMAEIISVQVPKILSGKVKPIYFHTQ
Assay: AR transcriptional activity, LNCaP-ARR2PB-eGFP reporter cells
Format: cell-based
Conditions: read-out: IC50 AR transcriptional activities
Source text: Detection principles: We conducted a stable transfection of promoter ARR2PB known for its strong AR responsiveness, into the androgen-dependent PCa cells (LNCaP). The expression of enhanced green fluorescent protein (eGFP) is depending on the degree of activation of AR. Therefore, LNCaP-ARR2PB-eGFP cell line could quantitatively determine the AR antagonistic activities of the compounds by evaluating the expression of eGFP.

Row | Compound | IC50 [µM]
1 | CC(=O)Cc1nsc(NC(=O)c2cc(-c3cccc([N+](=O)[O-])c3)oc2C)n1 [Compound A-2, 2-Methyl-5-(3-nitrophenyl)-N-(3-(2-oxopropyl)-1,2,4-thiadiazol-5-yl)furan-3-carboxamide] | 0.04
2 | CN1CCN(Cc2nsc(NC(=O)c3coc(-c4cccc(OC(F)F)c4)c3)n2)CC1 [Compound B-58, 5-(3-(Difluoromethoxy)phenyl)-N-(3-((4-methylpiperazin-1-yl)methyl)-1,2,4-thiadiazol-5-yl)furan-3-carboxamide] | 32.6
3 | O=C(Nc1nc(CN2CCCCC2)ns1)c1coc(-c2cccc(OC(F)F)c2)c1 [Compound B-56, 5-(3-(Difluoromethoxy)phenyl)-N-(3-(piperidin-1-ylmethyl)-1,2,4-thiadiazol-5-yl)furan-3-carboxamide] | 28.3
4 | CC(Cc1nsc(NC(=O)c2cc(-c3cccc(OC(F)F)c3)oc2C(F)(F)F)n1)N1CCN(C)CC1 (centres unmarked) [Compound E-11, 5-(3-(Difluoromethoxy)phenyl)-N-(3-(2-(4-methylpiperazin-1-yl)propyl)-1,2,4-thiadiazol-5-yl)-2-(trifluoromethyl)furan-3-carboxamide] | 0.97
5 | CC(F)(F)Cc1nsc(NC(=O)c2csc(-c3cccc(C(F)(F)F)c3)c2)n1 [Compound D-35, N-(3-(2,2-difluoropropyl)-1,2,4-thiadiazol-5-yl)-5-(3-(trifluoromethyl)phenyl)thiophene-3-carboxamide] | 49.5
6 | Cc1oc(-c2cccc(C(F)(F)F)c2)cc1C(=O)Nc1ncns1 [Compound A-99, 2-Methyl-N-(1,2,4-thiadiazol-5-yl)-5-(3-(trifluoromethyl)phenyl)furan-3-carboxamide] | 10.4
7 | CC(F)(F)Cc1nsc(NC(=O)c2cc(-c3cccc(OC(F)(F)F)c3)co2)n1 [Compound G-17, N-(3-(2,2-difluoropropyl)-1,2,4-thiadiazol-5-yl)-4-(3-(trifluoromethoxy)phenyl)furan-2-carboxamide] | 23
8 | CC(Cc1nsc(NC(=O)c2csc(-c3cccc(C(F)(F)F)c3)c2)n1)N(C)C [Compound D-6, N-(3-(2-(dimethylamino)propyl)-1,2,4-thiadiazol-5-yl)-5-(3-(trifluoromethyl)phenyl)thiophene-3-carboxamide] | 43.8
9 | CC(=O)Cc1nsc(NC(=O)c2cc(-c3cccc(OC(F)F)c3)sc2C)n1 [Compound C-5, 5-(3-(Difluoromethoxy)phenyl)-2-methyl-N-(3-(2-oxopropyl)-1,2,4-thiadiazol-5-yl)thiophene-3-carboxamide] | 49.3
10 | COc1cccc(-c2cc(C(=O)Nc3nc(CC(C)N4CCCCC4)ns3)c(C(F)(F)F)o2)c1 (centres unmarked) [Compound E-9, 5-(3-Methoxyphenyl)-N-(3-(2-(piperidin-1-yl)propyl)-1,2,4-thiadiazol-5-yl)-2-(trifluoro-methyl)furan-3-carboxamide] | 5.29
11 | COc1cccc(-c2cc(C(=O)Nc3nc(CC(C)N4CCCCC4)ns3)c(C)o2)c1 (centres unmarked) [Compound A-49, 5-(3-Methoxyphenyl)-2-methyl-N-(3-(2-(piperidin-1-yl)propyl)-1,2,4-thiadiazol-5-yl)furan-3-carboxamide] | 0.21
12 | CCOc1cccc(-c2cc(C(=O)Nc3nc(CC(C)=O)ns3)c(C)o2)c1 [Compound A-6, 5-(3-Ethoxyphenyl)-2-methyl-N-(3-(2-oxopropyl)-1,2,4-thiadiazol-5-yl)furan-3-carboxamide] | 0.13
13 | CC(=O)Cc1nsc(NC(=O)c2cc(-c3cccc(C(F)(F)F)c3)oc2C(F)(F)F)n1 [Compound E-1, N-(3-(2-oxopropyl)-1,2,4-thiadiazol-5-yl)-2-(trifluoromethyl)-5-(3-(trifluoro-methyl)phenyl)furan-3-carboxamide] | 1.06
14 | Cc1oc(-c2cccc(C(F)(F)F)c2)cc1C(=O)Nc1nc(CN2CCN(C)CC2)ns1 [Compound A-111, 2-Methyl-N-(3-((4-methylpiperazin-1-yl)methyl)-1,2,4-thiadiazol-5-yl)-5-(3-(trifluoro-methyl)phenyl)furan-3-carboxamide] | 0.57
